One experiment concerns 2B4/MCL-1. Nature of the experiment: MCL-1-selective apoptosis induction in 2B4 cells – cell-based, fluorescence, assay provider data, selectivity assay for MCL1-BIM inhibitor project, late-stage follow-up (AID 493062). As to conditions: 2B4/MCL-1 caspase activation fluorescence.
Another experiment concerns 2B4/BCL-2. The description is as above. To be noted: 2B4/MCL-1 caspase activation fluorescence.

Molecules are shown by their SMILES.

By EC50 is commonly meant the concentration that produces a half-maximal response. Low values mean higher potency in that assay, high ones lower potency in that assay.

Regarding `CCOc1cc(N2CCOCC2)c(OCC)cc1NC(=O)c1cc(-c2ccco2)nc2ccccc12`, the EC50 in the experiment with 2B4/MCL-1 and with 2B4/BCL-2 was more than 25 µM throughout.

In the case of `CCN1CCN(C(=O)c2cc(-c3ccco3)nc3ccccc23)CC1`, the concentration for a half-maximal effect (EC50) with 2B4/MCL-1 and in the experiment with 2B4/BCL-2 was more than 25 µM in each case.

Turning to `Cc1ccc(-c2cc(C(=O)N3CCN(c4ccc(F)cc4)CC3)c3ccccc3n2)o1`, the half-maximal effective concentration (EC50) in the experiment with 2B4/MCL-1 and in the experiment with 2B4/BCL-2 was more than 25 µM throughout.

On to `O=C(NCCCN1CCOCC1)c1cc(-c2ccco2)nc2ccccc12`, for which the EC50 with 2B4/MCL-1 and with 2B4/BCL-2 was more than 25 µM each time.

On to `Cc1ccc(-c2cc(C(=O)Nc3ccccc3C)c3ccccc3n2)o1`, for which the EC50 in the experiment with 2B4/MCL-1 and in the experiment on 2B4/BCL-2 was more than 25 µM in each case.

`COc1ccc(Cc2nnc(NC(=O)c3cc(-c4ccco4)nc4ccccc34)s2)cc1OC`: the half-maximal effective concentration (EC50) with 2B4/MCL-1 and in the experiment on 2B4/BCL-2 was more than 25 µM each time.

`Cc1ccc(S(=O)(=O)N(C)C)cc1NC(=O)c1cc(-c2ccco2)nc2ccccc12`: the EC50 in the experiment with 2B4/MCL-1 and with 2B4/BCL-2 was more than 25 µM throughout.

On to `O=C(Nc1nccs1)c1cc(-c2ccco2)nc2ccccc12`, for which the EC50 in the experiment on 2B4/MCL-1 and in the experiment on 2B4/BCL-2 was more than 25 µM in each case.

Consider `COc1ccc(Cc2nnc(NC(=O)Cc3ccc(C)cc3)s2)cc1OC`, for which the EC50 in the experiment on 2B4/MCL-1 and in the experiment with 2B4/BCL-2 was more than 25 µM in each case.

Consider `CCCCN(C(=O)c1cc(-c2ccco2)nc2ccccc12)c1c(N)n(CCC)c(=O)[nH]c1=O`, for which the EC50 in the experiment with 2B4/MCL-1 and with 2B4/BCL-2 was more than 25 µM each time.

`Cc1ccc(-c2cc(C(=O)N3CCOCC3)c3ccccc3n2)o1`: the EC50 in the experiment on 2B4/MCL-1 and with 2B4/BCL-2 was more than 25 µM in each case.

As to `COc1ccc(NC(=O)c2cc(-c3ccc(C)o3)nc3ccccc23)cc1OC`, the EC50 in the experiment with 2B4/MCL-1 and in the experiment with 2B4/BCL-2 was more than 25 µM each time.

As for `O=C(CCn1nnc2ccccc21)Nc1nnc(Cc2ccccc2)s1`, the EC50 in the experiment with 2B4/MCL-1 and in the experiment on 2B4/BCL-2 was more than 25 µM in each case.

On to `COc1ccc(Cc2nnc(NC(=O)Cc3cccnc3)s2)cc1OC`, for which the EC50 in the experiment on 2B4/MCL-1 and in the experiment on 2B4/BCL-2 was more than 25 µM throughout.

In the case of `O=C(Nc1ccccc1F)c1cc(-c2ccco2)nc2ccccc12`, the EC50 in the experiment with 2B4/MCL-1 and in the experiment on 2B4/BCL-2 was more than 25 µM throughout.

Regarding `COc1ccc(-c2cc(=O)oc3cc(OCC(=O)N4CC4)ccc23)cc1`, the EC50 with 2B4/MCL-1 and in the experiment with 2B4/BCL-2 was more than 25 µM each time.

On to `COc1ccc(CCNC(=O)c2cc(-c3ccco3)nc3ccccc23)cc1`, for which the EC50 in the experiment with 2B4/MCL-1 and in the experiment with 2B4/BCL-2 was more than 25 µM each time.

On to `Cc1ccc(NC(=O)c2cc(-c3ccc(C)o3)nc3ccccc23)nc1`, for which the EC50 in the experiment on 2B4/MCL-1 and with 2B4/BCL-2 was more than 25 µM throughout.

Take `CCCn1c(N)c(N(CCOC)C(=O)c2cc(-c3ccco3)nc3ccccc23)c(=O)[nH]c1=O`: the EC50 in the experiment on 2B4/MCL-1 and in the experiment with 2B4/BCL-2 was more than 25 µM in each case.

Take `COc1ccc(NC(=O)c2cc(-c3ccc(C)o3)nc3ccccc23)cc1`: the EC50 in the experiment with 2B4/MCL-1 and with 2B4/BCL-2 was more than 25 µM throughout.

`COc1ccc(Cc2nnc(NC(=O)c3cc(-c4ccc(C)o4)nc4ccccc34)s2)cc1OC`: the EC50 amounted to 12 µM with 2B4/MCL-1 and 30 µM with 2B4/BCL-2.

For `COc1ccc(Cc2nnc(NC(=O)Cc3sc(=S)[nH]c3C)s2)cc1OC`, the EC50 with 2B4/MCL-1 and with 2B4/BCL-2 was more than 25 µM throughout.

Consider `Cc1ccc2nc(NC(=O)c3cc(-c4ccco4)nc4ccccc34)sc2c1`, for which the EC50 in the experiment on 2B4/MCL-1 and with 2B4/BCL-2 was more than 25 µM each time.

Turning to `Cc1ccc(-c2cc(C(=O)Nc3cccc(S(=O)(=O)N(C)C)c3)c3ccccc3n2)o1`, the EC50 in the experiment on 2B4/MCL-1 and in the experiment with 2B4/BCL-2 was more than 25 µM each time.

Take `Cc1ccc(-c2cc(C(=O)N3CCN(c4ncccn4)CC3)c3cc(Br)ccc3n2)o1`: the EC50 in the experiment on 2B4/MCL-1 and in the experiment on 2B4/BCL-2 was more than 25 µM each time.

For `Cc1ccc(-c2cc(C(=O)NCC(c3ccccc3)N(C)C)c3ccccc3n2)o1` (stereo not given), the EC50 in the experiment on 2B4/MCL-1 and with 2B4/BCL-2 was more than 25 µM throughout.

As for `O=C(CCn1nnc2ccccc21)Nc1nnc(Cc2ccc(F)cc2)s1`, the EC50 in the experiment on 2B4/MCL-1 and with 2B4/BCL-2 was more than 25 µM in each case.

In the case of `COc1cccc(CC(=O)Nc2nnc(Cc3ccc(OC)c(OC)c3)s2)c1`, the EC50 in the experiment with 2B4/MCL-1 and with 2B4/BCL-2 was more than 25 µM each time.

With `Cc1csc(NC(=O)c2cc(-c3ccco3)nc3ccccc23)n1`, the EC50 in the experiment with 2B4/MCL-1 and with 2B4/BCL-2 was more than 25 µM throughout.

Regarding `O=C(NC1CC1)c1cc(-c2ccco2)nc2ccccc12`, the EC50 in the experiment on 2B4/MCL-1 and with 2B4/BCL-2 was more than 25 µM throughout.

For the compound `COc1ccc(Cc2nnc(NC(=O)Cc3ccccc3C)s2)cc1OC`, the EC50 with 2B4/MCL-1 and with 2B4/BCL-2 was more than 25 µM in each case.

For `O=C(Nc1ccc(F)cc1F)c1cc(-c2ccco2)nc2ccccc12`, the EC50 in the experiment with 2B4/MCL-1 and with 2B4/BCL-2 was more than 25 µM throughout.

On to `CCOC(=O)c1cc(-c2ccco2)nc2c1c(C)nn2-c1cccc(Cl)c1`, for which the EC50 with 2B4/MCL-1 and in the experiment with 2B4/BCL-2 was more than 25 µM throughout.

As for `COC(=O)C1CCN(C(=O)c2cc(-c3ccco3)nc3ccccc23)CC1`, the half-maximal effective concentration (EC50) in the experiment on 2B4/MCL-1 and in the experiment on 2B4/BCL-2 was more than 25 µM each time.

Take `CCCN(C(=O)c1cc(-c2ccco2)nc2ccccc12)c1c(N)n(Cc2ccccc2)c(=O)[nH]c1=O`: the EC50 in the experiment on 2B4/MCL-1 and with 2B4/BCL-2 was more than 25 µM in each case.

Values taken from PubChem BioAssay AID493062 (The Scripps Research Institute Molecular Screening Center, 2011).
